# Measured values as given in ChEMBL document CHEMBL1201862, “PubChem BioAssay data set” (2004).
# Active and inactive are the calls of the source.
# Tests used:
# Leucine aminopeptidase = target: T1, Leucine aminopeptidase (Plasmodium falciparum 3D7, UniProt Q8IL11); assay: P. falciparum M17LAP inhibitors, primary screen, biochemical, fluorogenic H-Leu-NHMec substrate, 1536-well (AID 1619); type: functional
# T1 sequence (Q8IL11 whole entry): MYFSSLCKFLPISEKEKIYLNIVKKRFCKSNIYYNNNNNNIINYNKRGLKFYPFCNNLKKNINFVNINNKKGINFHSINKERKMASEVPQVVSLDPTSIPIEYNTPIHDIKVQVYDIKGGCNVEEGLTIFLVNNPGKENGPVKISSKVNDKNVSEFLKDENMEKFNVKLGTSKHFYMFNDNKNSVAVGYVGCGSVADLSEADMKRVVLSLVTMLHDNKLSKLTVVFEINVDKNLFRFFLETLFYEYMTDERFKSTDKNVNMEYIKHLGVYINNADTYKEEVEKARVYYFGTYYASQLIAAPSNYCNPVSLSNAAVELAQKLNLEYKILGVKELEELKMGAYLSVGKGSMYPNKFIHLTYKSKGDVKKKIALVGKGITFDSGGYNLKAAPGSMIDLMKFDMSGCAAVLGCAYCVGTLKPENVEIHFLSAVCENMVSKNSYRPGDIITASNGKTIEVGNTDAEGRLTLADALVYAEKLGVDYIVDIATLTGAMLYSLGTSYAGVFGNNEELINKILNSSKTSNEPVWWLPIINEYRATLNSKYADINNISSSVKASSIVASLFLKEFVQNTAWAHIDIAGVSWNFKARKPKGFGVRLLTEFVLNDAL
# [1] = target: T2, Short transient receptor potential channel 4 (Mus musculus, UniProt Q9QUQ5); assay: calcium entry via TRPC4 opening agents – cell-based, HEK293 TRPC4/mu-opioid, Fluo-4 calcium, dose response (AID 434937); type: functional
# T2 sequence (Q9QUQ5 whole entry): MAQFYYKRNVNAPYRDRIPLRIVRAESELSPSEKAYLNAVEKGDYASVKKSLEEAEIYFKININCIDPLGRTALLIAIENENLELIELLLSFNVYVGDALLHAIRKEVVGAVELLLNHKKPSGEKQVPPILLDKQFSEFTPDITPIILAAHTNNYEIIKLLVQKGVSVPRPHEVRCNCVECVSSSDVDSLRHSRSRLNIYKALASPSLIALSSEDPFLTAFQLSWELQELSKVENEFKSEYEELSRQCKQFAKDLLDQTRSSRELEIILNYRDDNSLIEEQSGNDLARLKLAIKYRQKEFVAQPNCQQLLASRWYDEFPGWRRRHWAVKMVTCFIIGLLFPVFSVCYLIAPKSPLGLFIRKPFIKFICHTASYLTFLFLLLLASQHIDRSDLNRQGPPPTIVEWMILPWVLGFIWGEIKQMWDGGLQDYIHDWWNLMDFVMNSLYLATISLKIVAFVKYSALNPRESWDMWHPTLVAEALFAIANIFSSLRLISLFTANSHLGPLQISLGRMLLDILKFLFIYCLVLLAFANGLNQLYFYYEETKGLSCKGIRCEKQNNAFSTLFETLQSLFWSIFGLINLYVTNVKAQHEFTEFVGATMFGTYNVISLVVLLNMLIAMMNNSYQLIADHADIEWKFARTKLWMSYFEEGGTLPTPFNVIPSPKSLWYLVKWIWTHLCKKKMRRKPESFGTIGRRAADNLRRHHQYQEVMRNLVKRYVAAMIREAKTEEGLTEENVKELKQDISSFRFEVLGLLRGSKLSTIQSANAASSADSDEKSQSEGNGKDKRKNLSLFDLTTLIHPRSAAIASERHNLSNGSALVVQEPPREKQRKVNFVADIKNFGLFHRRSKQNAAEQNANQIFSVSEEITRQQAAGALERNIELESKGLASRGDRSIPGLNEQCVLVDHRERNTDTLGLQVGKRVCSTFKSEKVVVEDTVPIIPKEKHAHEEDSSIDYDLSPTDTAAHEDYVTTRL
# [2] = target: T3, Small ubiquitin-related modifier 1 (Homo sapiens, UniProt P63165); assay: SUMO1 protein interaction blockers, potency – biochemical, fluorescence polarization, uHTS hits, dose response (AID 624382); type: functional; details: read-out: IC50_Mean
# [3] = target: T3, Small ubiquitin-related modifier 1; assay: SUMO1 protein-protein binding blockers, potency – biochemical, FRET, dose response (AID 624383); type: functional; details: read-out: IC50_Mean
# [4] = viability of PTEN-deleted HCT116 cells – cell-based, HCT116 PTEN knockout, dose response (AID 1047); type: functional;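 also: HCT116 colon tumor cells with PTEN knocked out; cells exposed to compound for 60 hours before readout; potency for loss of cell viability measured by luminescence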
# [5] = viability of HCT116 lacking mutant beta-catenin – cell-based, human colon tumor, dose response (AID 1045); type: functional;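 also: HCT116 colon tumor cells with beta catenin knocked out; cells exposed to compound for 60 hours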
# Vero = assay: viability of Vero cells under compound – cytotoxicity control for flavivirus capping enzyme inhibitors (AID 588742); type: functional; details: Chlorocebus sabaeus
# [6] = target: T4, Long-chain-fatty-acid--AMP ligase FadD28 (Mycobacterium tuberculosis, UniProt P9WQ59); assay: Fluorescence polarization aasay to screen for inhibitors that compete for the binding of FadD28 to a bisubstrate Measured in Biochemical System Using Plate Reader - 2147-01_Inhibitor_Dose_CherryPick_Activity.; type: functional, Mycobacterium tuberculosis H37Rv
# T4 sequence (P9WQ59 whole entry): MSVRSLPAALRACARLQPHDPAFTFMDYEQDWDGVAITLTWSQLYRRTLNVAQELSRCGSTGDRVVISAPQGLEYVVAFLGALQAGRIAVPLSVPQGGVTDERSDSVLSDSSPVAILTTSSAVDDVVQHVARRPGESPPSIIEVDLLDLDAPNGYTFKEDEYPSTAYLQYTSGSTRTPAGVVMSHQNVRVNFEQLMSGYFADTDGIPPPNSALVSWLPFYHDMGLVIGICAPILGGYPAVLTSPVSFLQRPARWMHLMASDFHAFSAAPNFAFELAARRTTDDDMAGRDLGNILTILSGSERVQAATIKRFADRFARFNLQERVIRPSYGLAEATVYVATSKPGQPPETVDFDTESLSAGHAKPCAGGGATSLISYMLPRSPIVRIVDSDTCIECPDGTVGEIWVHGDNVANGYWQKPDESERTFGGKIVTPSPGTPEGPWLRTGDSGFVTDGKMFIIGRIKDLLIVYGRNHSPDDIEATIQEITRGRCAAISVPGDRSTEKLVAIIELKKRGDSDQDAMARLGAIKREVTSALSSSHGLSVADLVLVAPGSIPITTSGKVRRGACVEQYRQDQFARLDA
# [7] = target: T5, Adenosylmethionine-8-amino-7-oxononanoate aminotransferase (Mycobacterium tuberculosis, UniProt P9WQ81); assay: Mycobacterium tuberculosis BioA enzyme inhibitor Measured in Biochemical System Using Plate Reader - 2163-02_Inhibitor_Dose_CherryPick_Activity.; type: functional, Mycobacterium tuberculosis UT205
# T5 sequence (P9WQ81 whole entry): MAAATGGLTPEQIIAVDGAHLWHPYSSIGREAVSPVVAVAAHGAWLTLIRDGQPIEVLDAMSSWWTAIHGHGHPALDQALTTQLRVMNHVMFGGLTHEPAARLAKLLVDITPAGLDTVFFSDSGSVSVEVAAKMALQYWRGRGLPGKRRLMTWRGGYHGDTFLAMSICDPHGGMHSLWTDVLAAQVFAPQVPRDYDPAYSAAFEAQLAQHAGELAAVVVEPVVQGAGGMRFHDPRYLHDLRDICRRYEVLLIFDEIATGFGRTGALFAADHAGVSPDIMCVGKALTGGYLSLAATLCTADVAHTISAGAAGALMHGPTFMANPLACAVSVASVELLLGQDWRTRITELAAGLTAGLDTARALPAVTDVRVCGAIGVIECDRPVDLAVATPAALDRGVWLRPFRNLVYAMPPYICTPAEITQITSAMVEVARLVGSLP
# [8] = target: T6, High affinity choline transporter 1 (Homo sapiens, UniProt Q9GZV3); assay: human choline transporter blockers, potency – cell-based, 5-point CRC, membrane potential dye, dose response (AID 504840); type: functional
# T6 sequence (Q9GZV3 whole entry): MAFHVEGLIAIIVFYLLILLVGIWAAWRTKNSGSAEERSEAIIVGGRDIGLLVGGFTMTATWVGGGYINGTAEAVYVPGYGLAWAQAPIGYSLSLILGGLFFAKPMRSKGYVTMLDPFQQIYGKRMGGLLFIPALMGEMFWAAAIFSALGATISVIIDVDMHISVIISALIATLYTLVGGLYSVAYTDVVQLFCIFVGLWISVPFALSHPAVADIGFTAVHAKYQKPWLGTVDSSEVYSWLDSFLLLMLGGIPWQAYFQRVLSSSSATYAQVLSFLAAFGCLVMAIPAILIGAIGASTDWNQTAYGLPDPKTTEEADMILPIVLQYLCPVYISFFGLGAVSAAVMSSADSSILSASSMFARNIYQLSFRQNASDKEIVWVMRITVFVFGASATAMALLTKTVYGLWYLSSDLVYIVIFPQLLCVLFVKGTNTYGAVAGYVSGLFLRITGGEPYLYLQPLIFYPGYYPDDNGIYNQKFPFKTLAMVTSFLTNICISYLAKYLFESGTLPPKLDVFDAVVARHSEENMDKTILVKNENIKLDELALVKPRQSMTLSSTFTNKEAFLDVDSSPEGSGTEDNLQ
# Genome polyprotein = Genome polyprotein (dengue virus type 2, UniProt P29990); assay: flavivirus cap methylation enzyme inhibition – biochemical, confirmation dose response, primary screen (AID 588689); type: functional
# Fatty acid synthase [9] = target: T7, Fatty acid synthase (Homo sapiens, UniProt P49327); assay: inhibition of human FAS-TE enzyme activity – biochemical, endpoint fluorescence intensity, uHTS hits, dose response (AID 624327); type: functional;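 also: fluorescence from hydrolysis of an O-methyl fluorescein acyl ester substrate by the enzyme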
# Fatty acid synthase [10] = target: T7, Fatty acid synthase; assay: inhibition of human FAS-TE enzyme activity – biochemical, kinetic fluorescence intensity, dose response (AID 624326); type: functional;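 also: rate of fluorescence rise from hydrolysis of a fluorogenic O-methyl fluorescein ester substrate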
# [11] = NIH-3T3 fibroblast cytotoxicity, dose response, cytotoxicity control, cell-based, fluorescence, Alamar Blue, secondary assay (AID 2327); type: functional;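 also: NIH-3T3 mouse fibroblasts cultured with fluconazole at 8 µg/mL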
# [12] = tested on: Streptococcus sp. 'group A'; assay: Streptococcus pyogenes SK(-)GAS viability under kanamycin – luminescence, BacTiterGlo, confirmation, counter-screen for streptokinase expression inhibitor project, dose response (AID 1900); type: functional, organism-based
# Streptokinase A = target: T8, Streptokinase A (Streptococcus pyogenes serotype M1, UniProt P10520); assay: viability-normalized secreted streptokinase activity reduction – plasminogen activation absorbance, OD405, dose response (AID 1914); type: functional, Streptococcus pyogenes M1 GAS;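 also: secreted streptokinase activity via plasminogen activation per viability signal from cell pellet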
# T8 sequence (P10520 whole entry): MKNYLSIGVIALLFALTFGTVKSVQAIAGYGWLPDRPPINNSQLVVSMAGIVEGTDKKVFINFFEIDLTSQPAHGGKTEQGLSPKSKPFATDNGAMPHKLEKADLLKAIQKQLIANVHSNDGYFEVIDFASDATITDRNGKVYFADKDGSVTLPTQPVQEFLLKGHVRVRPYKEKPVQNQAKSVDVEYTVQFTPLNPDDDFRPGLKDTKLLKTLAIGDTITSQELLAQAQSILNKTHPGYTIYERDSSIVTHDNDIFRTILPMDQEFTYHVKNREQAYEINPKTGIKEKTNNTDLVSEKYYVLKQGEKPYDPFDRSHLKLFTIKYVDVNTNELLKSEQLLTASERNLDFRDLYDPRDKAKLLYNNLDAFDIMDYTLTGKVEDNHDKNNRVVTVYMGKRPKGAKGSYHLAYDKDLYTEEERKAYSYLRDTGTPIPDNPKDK
# [13] = fluconazole-exposed Candida albicans growth modulators – fluorescence, retest, confirmation (AID 2467); type: functional, cell-based
# Streptococcus = assay: GAS UMAA2166 growth inhibition – luminescence, BacTiterGlo, counter-screen for streptokinase expression inhibitor project, dose response (AID 1915); type: functional, organism-based;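 also: potency for reduction of bacterial viability or growth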
# T7 sequence (P49327 whole entry): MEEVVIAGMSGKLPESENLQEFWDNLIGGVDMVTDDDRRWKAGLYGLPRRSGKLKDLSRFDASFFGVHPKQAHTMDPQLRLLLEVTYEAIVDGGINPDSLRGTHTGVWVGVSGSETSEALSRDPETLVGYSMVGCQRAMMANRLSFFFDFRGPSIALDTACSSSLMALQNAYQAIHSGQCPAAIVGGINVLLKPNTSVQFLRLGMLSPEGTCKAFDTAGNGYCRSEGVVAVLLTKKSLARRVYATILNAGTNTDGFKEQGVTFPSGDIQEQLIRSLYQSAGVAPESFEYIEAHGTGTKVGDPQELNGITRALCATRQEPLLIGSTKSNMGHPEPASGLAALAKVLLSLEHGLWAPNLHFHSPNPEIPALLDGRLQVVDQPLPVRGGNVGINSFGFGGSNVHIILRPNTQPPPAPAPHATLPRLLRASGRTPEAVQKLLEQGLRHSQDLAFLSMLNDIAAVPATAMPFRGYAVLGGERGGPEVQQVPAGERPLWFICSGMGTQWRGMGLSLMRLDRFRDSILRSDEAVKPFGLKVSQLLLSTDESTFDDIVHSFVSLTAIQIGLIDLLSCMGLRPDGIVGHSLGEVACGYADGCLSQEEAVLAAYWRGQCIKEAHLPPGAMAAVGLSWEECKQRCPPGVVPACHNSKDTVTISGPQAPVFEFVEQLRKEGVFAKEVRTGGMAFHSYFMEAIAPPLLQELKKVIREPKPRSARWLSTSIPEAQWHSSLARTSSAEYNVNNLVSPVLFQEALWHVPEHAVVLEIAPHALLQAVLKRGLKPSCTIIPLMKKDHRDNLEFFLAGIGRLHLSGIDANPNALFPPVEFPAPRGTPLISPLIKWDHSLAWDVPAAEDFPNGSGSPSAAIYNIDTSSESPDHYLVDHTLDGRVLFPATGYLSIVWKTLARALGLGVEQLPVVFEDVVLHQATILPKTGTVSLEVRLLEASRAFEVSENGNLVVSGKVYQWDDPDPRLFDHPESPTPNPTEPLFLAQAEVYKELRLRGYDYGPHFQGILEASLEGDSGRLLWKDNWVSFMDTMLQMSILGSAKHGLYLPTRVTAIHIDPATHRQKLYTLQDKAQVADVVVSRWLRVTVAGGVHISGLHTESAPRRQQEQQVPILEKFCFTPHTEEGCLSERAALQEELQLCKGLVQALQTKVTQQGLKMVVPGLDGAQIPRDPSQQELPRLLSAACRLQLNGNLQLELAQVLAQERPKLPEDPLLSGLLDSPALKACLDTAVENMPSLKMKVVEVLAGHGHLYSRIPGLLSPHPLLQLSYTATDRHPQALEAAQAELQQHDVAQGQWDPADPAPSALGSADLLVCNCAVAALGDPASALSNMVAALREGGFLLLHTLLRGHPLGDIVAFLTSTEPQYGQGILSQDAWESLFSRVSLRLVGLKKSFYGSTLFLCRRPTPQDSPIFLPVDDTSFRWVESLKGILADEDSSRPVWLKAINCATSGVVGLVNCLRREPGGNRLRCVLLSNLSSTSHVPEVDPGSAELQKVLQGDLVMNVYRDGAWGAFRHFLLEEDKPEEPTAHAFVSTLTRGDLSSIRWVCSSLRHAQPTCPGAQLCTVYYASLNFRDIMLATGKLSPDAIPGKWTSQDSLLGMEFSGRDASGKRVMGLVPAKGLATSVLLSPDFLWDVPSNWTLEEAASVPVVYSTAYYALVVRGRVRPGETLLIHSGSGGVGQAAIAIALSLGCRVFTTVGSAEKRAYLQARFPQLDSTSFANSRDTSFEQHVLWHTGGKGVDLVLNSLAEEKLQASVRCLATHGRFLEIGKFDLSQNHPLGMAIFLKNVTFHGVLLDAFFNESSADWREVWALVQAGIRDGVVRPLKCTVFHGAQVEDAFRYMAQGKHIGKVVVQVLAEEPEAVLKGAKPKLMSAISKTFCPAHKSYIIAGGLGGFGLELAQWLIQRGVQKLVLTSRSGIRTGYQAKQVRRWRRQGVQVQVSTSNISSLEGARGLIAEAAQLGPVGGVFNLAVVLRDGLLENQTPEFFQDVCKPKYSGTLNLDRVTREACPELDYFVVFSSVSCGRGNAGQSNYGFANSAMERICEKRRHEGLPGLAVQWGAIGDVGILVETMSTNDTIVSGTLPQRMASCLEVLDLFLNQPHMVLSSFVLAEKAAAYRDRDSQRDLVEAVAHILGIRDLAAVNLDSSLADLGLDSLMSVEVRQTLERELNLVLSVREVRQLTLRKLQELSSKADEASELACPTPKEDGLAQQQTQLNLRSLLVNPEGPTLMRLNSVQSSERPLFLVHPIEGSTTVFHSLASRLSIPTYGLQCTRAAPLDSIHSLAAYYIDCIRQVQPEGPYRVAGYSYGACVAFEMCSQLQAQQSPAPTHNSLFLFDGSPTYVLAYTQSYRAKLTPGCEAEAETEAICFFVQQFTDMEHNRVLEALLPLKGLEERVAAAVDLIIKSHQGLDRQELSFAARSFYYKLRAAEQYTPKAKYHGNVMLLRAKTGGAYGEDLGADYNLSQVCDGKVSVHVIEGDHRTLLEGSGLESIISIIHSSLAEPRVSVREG
# Chain of Genome polyprotein (P29990 2492-3391 limits assumed): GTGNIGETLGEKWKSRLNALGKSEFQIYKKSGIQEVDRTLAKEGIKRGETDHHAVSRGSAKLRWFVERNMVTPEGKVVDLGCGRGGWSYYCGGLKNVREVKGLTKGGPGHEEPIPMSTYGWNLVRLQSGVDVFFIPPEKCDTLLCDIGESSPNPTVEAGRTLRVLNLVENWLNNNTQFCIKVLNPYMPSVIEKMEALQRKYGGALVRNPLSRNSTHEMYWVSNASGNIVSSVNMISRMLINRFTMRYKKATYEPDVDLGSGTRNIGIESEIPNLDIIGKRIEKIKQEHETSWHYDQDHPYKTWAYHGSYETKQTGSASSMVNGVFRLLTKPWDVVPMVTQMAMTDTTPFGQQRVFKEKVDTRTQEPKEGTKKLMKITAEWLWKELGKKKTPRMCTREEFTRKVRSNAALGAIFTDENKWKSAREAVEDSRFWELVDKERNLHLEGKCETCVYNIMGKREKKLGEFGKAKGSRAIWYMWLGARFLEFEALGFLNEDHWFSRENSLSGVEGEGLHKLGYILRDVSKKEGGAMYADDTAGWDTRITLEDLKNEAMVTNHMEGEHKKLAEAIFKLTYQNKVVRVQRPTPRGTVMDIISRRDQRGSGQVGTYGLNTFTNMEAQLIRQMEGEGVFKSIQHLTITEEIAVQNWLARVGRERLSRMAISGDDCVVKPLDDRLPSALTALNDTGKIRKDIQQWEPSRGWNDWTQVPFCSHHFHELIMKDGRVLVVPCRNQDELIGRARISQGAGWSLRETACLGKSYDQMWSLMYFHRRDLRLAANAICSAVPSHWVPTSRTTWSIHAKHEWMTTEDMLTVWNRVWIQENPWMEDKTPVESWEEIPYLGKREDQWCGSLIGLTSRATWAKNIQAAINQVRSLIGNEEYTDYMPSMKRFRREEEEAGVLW
# T3 sequence (P63165 whole entry): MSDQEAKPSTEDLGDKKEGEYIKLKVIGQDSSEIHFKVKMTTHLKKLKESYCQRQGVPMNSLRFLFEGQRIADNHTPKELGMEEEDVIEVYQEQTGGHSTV
structure (smiles),measurement,setting,value
Cc1onc(-c2ccccc2)c1C(=O)NNC(=S)NC(=O)c1ccc(F)cc1,IC50,Leucine aminopeptidase,79.4 µM (active)
same,EC50,[1],5.96 µM (active)
same,IC50,[2],> 66.6 µM (inactive)
same,IC50,[3],100 µM (inactive)
CC(=O)Nc1ccc(S(=O)(=O)NCCSCc2c(Cl)cccc2Cl)cc1,EC50,[4],61.4 µM (active)
same,EC50,[5],149 µM (active)
same,CC50,Vero,> 40 µM (active)
CC(=O)c1cccc(NC(=O)NC2CCCCCCC2)c1,AC50,[6],> 100 µM (inactive)
O=C(O)CCS(=O)(=O)c1nc(-c2cccs2)cc(C(F)(F)F)n1,AC50,[7],15.6 µM (active)
CCCn1nc(NS(=O)(=O)c2cccc3nonc23)c2cc3cccc(C)c3nc21,IC50,[8],3.54 µM (active)
same,IC50,Genome polyprotein,39.8 µM (active)
same,AC50,[6],> 100 µM (inactive)
CCOCCCNC(=O)CSc1nc2nc(C)c(Cc3ccccc3)c(C)n2n1,AC50,[7],2.18 µM (active)
O=C(CC(C(=O)O)c1ccc(Cl)cc1)c1ccc(Cl)c(Cl)c1 (centres undefined),IC50,Fatty acid synthase [9],2.11 µM (active)
same,IC50,Fatty acid synthase [10],4.21 µM (active)
CCc1ccc(/C=C2\SC(=S)N(CCCC(=O)Nc3ccccc3C(=O)O)C2=O)cc1,EC50,[11],6.89 µM (inconclusive)
same,EC50,[12],1.9 µM (active)
same,EC50,Streptokinase A,> 50 µM (not active)
same,EC50,[13],2.37 µM (active)
same,EC50,Streptococcus,133 µM (active)
same,CC50,Vero,> 40 µM (active)
same,IC50,Genome polyprotein,30.8 µM (active)
C=CCn1c(SCc2cc([N+](=O)[O-])cc3c2OCOC3)nc2cc(C(=O)O)ccc2c1=O,IC50,Fatty acid synthase [9],2.57 µM (active)
same,IC50,Fatty acid synthase [10],1.6 µM (active)
